From publication PMC9386018, “A lymphatic-absorbed multi-targeted kinase inhibitor for myelofibrosis therapy” (Nature Communications, 2022)
Values joined by “and” are separate entries in the source; they are usually repeats but may differ in a detail not shown here. Equal entries are not always repeated.

Tests used:
BRAF = BRAF (Homo sapiens, UniProt P15056); assay: Target kinase 10-point inhibition assay, BRAF; format: biochemical; settings: replicates
From the text: The average percent kinase inhibition from replicate data was ranked low to high, converted to a compatible identifier format, then input into Coral Human Kinome Visualization software for presentation analysis. […] Scaling of evolutionary distance for PI kinases is only relative and is based on literature analysis[62],[63]. Average percent kinome inhibition values from replicate data are supplied in Source Data file. […] Corrected data was normalized to vehicle treated control values, and dose response percent kinase activity was analyzed by non-linear regression for determination of IC50 values.

[1] = system: pERK1/2 (pT202/pY204) in splenocytes; assay: MPL^W515L MF mouse model: pERK1/2 in splenocytes by flow cytometry; format: in vivo; settings: MPL^W515L mice, oral 400 mg kg^−1 daily, 28 d
Experimental: The human megakaryoblastic cell line, SET-2 (ATCC), was maintained in RPMI 1640 supplemented with 20% FBS and incubated for 16 h at 10^6 cells mL^−1 with LP-182 or vehicle (DMSO; dimethyl sulfoxide), then washed in ice-cold PBS, and collected for flow cytometry analysis. Single-cell suspensions of mouse spleen were prepared from MPL^W515L MF mice (below) in RPMI 1640 supplemented with 5% FCS. Red blood cells were lysed by ammonium chloride-mediated red cell lysis (RCL) buffer and passed through a nylon mesh, and then cells were counted. For intracellular phospho-protein staining, SET-2 or spleen cells were fixed and then permeabilized using BD Phospho-flow fixation buffer and Perm-Buffer III (BD biosciences) according to the manufacturer’s protocol. Intracellular phospho-protein staining was performed using fluorochrome-conjugated antibodies, pAKT (pS473)-Alexa Fluor 647 (MB89-61) or pERK1/2 (pT202/pY204)-Alexa Fluor 647 (20 A). […] Flow cytometry was performed on a FACS Fortessa (Becton, Dickinson and Co.) using FACSDiVa software, and data analyzed using FlowJo software (Tree Star). […]
Generation of the MPL^W515L mutant MF mouse model was similar to previously described methods. […] Development of MF was evaluated by spleen volumes using MRI beginning ~14 d following bone marrow transplantation (BMT) as outlined below, continuing weekly until end of the study. […]

Sequence of BRAF (P15056 whole entry): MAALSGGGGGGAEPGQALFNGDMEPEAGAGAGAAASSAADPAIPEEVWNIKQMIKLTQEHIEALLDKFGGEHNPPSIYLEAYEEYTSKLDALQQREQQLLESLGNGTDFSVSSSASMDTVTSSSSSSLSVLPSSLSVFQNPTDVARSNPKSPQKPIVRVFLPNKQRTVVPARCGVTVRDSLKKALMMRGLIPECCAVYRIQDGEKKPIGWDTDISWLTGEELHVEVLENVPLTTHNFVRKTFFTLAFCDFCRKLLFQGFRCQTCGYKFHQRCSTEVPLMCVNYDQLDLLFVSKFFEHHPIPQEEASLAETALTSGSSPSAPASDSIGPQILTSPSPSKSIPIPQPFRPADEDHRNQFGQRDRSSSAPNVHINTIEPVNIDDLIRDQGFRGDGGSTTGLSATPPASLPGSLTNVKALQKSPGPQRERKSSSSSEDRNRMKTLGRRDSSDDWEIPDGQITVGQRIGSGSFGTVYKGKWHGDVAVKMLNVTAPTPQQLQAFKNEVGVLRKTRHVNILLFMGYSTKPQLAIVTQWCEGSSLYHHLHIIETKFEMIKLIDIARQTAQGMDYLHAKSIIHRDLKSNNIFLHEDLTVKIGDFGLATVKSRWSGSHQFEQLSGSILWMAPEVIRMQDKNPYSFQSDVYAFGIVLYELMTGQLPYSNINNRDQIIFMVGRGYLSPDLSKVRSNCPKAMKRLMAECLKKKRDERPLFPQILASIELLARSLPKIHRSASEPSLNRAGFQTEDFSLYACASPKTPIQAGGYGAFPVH

O=C(NOCCOCCOCCOCCC(=O)N1CCN(c2cnc3ccc(-c4cnc(Cl)c(NS(=O)(=O)c5ccc(F)cc5)c4)cc3n2)CC1)c1ccc(F)c(F)c1Nc1ccc(I)cc1F [LP-182, N-(2-(2-(2-(3-(4-(7-(6-chloro-5-((4-fluorophenyl)sulfonamido)pyridin-3-yl)quinoxalin-2-yl)piperazin-1-yl)-3-oxopropoxy)ethoxy)ethoxy)ethoxy)-3,4-difluoro-2-((2-fluoro-4-iodophenyl)amino)benzamide]
activity at 0.000495 µM (BRAF; 0.495 nM): 100%
Kinase Activity (%) (BRAF; 0.495 nM, 0.000495 µM): 102% and 96% and 94% and 93%
activity at 0.00152 µM (BRAF; 1.52 nM): 101%
Kinase Activity (%) (BRAF; 1.52 nM, 0.00152 µM): 98% and 95% (2×) and 94%
activity at 0.00457 µM (BRAF; 4.57 nM): 90%
Kinase Activity (%) (BRAF; 4.57 nM, 0.00457 µM): 94% and 95% and 98% and 89% and 93%
Kinase Activity (%) (BRAF; 41.2 nM, 0.0412 µM): 49% and 38% and 54% and 59% and 53% (2×)
Kinase Activity (%) (BRAF; 123 nM, 0.123 µM): 14% and 12% and 41% and 34% (2×) and 38%
Kinase Activity (%) (BRAF; 1110 nM, 1.11 µM): -5% and -3% and 2% (2×) and 4% and 5%
Kinase Activity (%) (BRAF; 3330 nM, 3.33 µM): -5% (2×) and 1% (3×) and 4%
Kinase Activity (%) (BRAF; 10000 nM, 10 µM): -2% and -5% and 2% and 1% and 7% and -1%
active ERK1/2 level in splenocytes [1]: reduced active AKT and ERK1/2 levels to those comparable to healthy control mice
